Where no end group is shown, it is not given here. [ ]: non-standard residue; d: D form.
Legend:
cytochrome c [1] = assay: Cytochrome c peroxidase activity (Amplex Red Peroxidase Kit); type: biochemical; conditions: for reduction in cytochrome c peroxidase activity compared to cytochrome c exposed to chol-POPC liposomes only: 300 μM chol-POPC liposomes, cytochrome c incubated with peptide first, peptide concentration not stated (FIG. 2 range 0-300 μM); for effect on cholesterol-induced cytochrome c peroxidase activity (FIG. 2): peptide 0 μM to 300 μM, 300 μM cholesterol
Procedure: Cytochrome c peroxidase activity was measured using the Amplex Red Peroxidase Kit. Amplex Red reagent reacts with H2O2 in a 1:1 ratio in the presence of a peroxidase in order to create a highly fluorescent compound called resorufin, which has an excitation at 570 nm and an emission at 585 nm. 2 μM cytochrome c was incubated in 20 mM Hepes buffer pH 7.4 with varying concentrations of free cholesterol dissolved in ethanol or cholesterol-POPC liposomes (chol-POPC). 10 μM of H2O2 and 50 μM of Amplex Red reagent were subsequently added. The fluorescence was then measured using time course data collected from a Spectra Max 190 microplate spectrofluorometer (Molecular Devices, Sunnyvale, Calif.). Liposomes were prepared as previously described in Melzak et al., Langmuir, 24: 9172-9180 (2008). Chol-POPC liposomes were prepared in a 1:1 molar ratio. Stock solutions were mixed and then dried under nitrogen from 30 minutes. After resuspension in 20 mM Hepes buffer pH 7.4, the liposomes were extruded 25 times through a 50 nm pore membrane (Avestin).

cytochrome c [2] = assay: Cytochrome c reduction by ascorbate (absorbance at 550 nm); type: biochemical; conditions: 100 μM chol-POPC liposomes, 20 μM cytochrome c, 50 μM vitamin C; peptide up to 300 μM
Procedure: Liposomes were prepared as previously described in Melzak et al., Langmuir, 24: 9172-9180 (2008). Chol-POPC liposomes were prepared in a 1:1 molar ratio. Stock solutions were mixed and then dried under nitrogen from 30 minutes. After resuspension in 20 mM Hepes buffer pH 7.4, the liposomes were extruded 25 times through a 50 nm pore membrane (Avestin). 20 μM cytochrome c in Hepes buffer pH 7.4 was contacted with varying concentrations of chol-POPC liposomes and peptide. 50 μM ascorbate (vitamin C) was added after five minutes in order to promote the reduction the cytochrome c protein. The absorbance at 550 nm was then recorded in order to obtain the rate of the reaction after treatment with varying concentrations of peptide and cholesterol using a spectrophotometer (Spectramax Gemini XPS, Molecular Devices, Sunnyvale, Calif.). (See Basova et al., 2007).

cytochrome c [3] = assay: Absorbance spectrum of cytochrome c (Soret band, 350-450 nm); conditions: 100 μM peptide
Procedure: The effects of cholesterol and aromatic-cationic peptides on the structure of cytochrome c were analyzed using absorbance spectra (Pinherio et al., 1997). Wild-type cytochrome c typically has a peak at around 410 nm (which represents the Soret region) that may be affected by protein damage. Absorbance between 350-450 nm was analyzed using a Spectramax Gemini XPS spectrophotometer (Molecular Devices, Sunnyvale, Calif.).
Cholesterol-induced structural alterations of cytochrome c were also analyzed using absorption spectroscopy. The absorbance spectrum between 350 and 450 nm was analyzed so as to monitor changes to the Soret band. A Soret band with a maximum intensity at 410 nm is indicative of the presence of both axial ligands (His18 and Met80 ligated to heme iron). (Pinherio et al., 1997).

cytochrome c [4] = assay: Circular dichroism spectroscopy of cytochrome c (Soret region); conditions: 100 μM peptide; 40 μM chol-POPC liposomes; 10 mM cytochrome c
Procedure: The circular dichroism (CD) spectra was collected using an AVIA 62 DS spectrophotometer. The CD spectra was analyzed between 375-450 nm in order to monitor the Soret region using a CD 10-mm path-length for cells containing 20 mM Hepes (pH 7.4) and […] cytochrome c in the presence or absence of 40 μM chol-POPC liposomes and/or 100 μM SS-31.
Circular dichroism (Olis DSM20 spectropolarimeter) was carried out to analyze Soret region (375-450 nm), a probe for the attachment of the Met80 residue to the heme iron. The decreased intensity of the 416 nm Cotton effect (negative Cotton peak) is indicative of a perturbed heme pocket region, as the 416 nm dichroic band serves as a readout for the Met80-Fe(III) coordination in native cytochrome c. (Santucci et al., 1997). […] The CD spectra data comports with the findings of Examples 1 and 3 because the disruption of the Fe-Met80 coordination increases the exposure of the heme Fe to H2O2, thereby causing cytochrome c to switch from an electron carrier to a peroxidase.

Molecule	increase in cytochrome c peroxidase activity (cytochrome c [1]; 300 μM, 2 μM cytochrome c, 10 μM H2O2, 50 μM Amplex Red) [fold]	reduction in cytochrome c peroxidase activity compared to cytochrome c exposed to chol-POPC liposomes only (cytochrome c [1]) [%]	effect on cholesterol-induced cytochrome c peroxidase activity (FIG. 2) (cytochrome c [1]; 2 μM cytochrome c)	effect on cholesterol-induced impairment of cytochrome c reduction (FIG. 3B) (cytochrome c [2])	intensity of the 410 nm absorbance peak of cytochrome c incubated with chol-POPC liposomes (cytochrome c [3])	negative Cotton peak of cytochrome c incubated with chol-POPC liposomes (CD spectra) (cytochrome c [4])
CC(C)CCC[C@@H](C)[C@H]1CC[C@H]2[C@@H]3CC=C4C[C@@H](O)CC[C@]4(C)[C@H]3CC[C@]12C [cholesterol]	40	–	–	–	–	–
F[dR]FK-NH2 [SS-20]	–	77	inhibit cholesterol-induced cytochrome c peroxidase activity in a dose-dependent manner	reversed	–	–
D-Arg-2′,6′-Dmt-Lys-Phe-NH2 [SS-31]	–	75	inhibit cholesterol-induced cytochrome c peroxidase activity in a dose-dependent manner	reversed	increases the intensity of the 410 nm peak	restores the negative Cotton peak

— patent US20170057995A1, “USE OF AROMATIC-CATIONIC PEPTIDES TO TREAT CHOLESTEROL-INDUCED MITOCHONDRIAL DYSFUNCTION” (CORNELL UNIVERSITY, priority 2013, published 2017)
